What was measured:
hSARM1 = molecular target: T1, hSARM1 (Homo sapiens, UniProt Q6SZW1); experiment: Human SARM1 activity measurement in HEK293 cells transiently transfected with ΔN-hSARM1 (PC6 fluorescent probe); assay type: cell-based; parameters: expressed in transfected cells; host or cells: HEK293, pcDNA3 expression vector; details: inhibition rate; compound 30 µM; PC6 50 µM; HEK293 cells expressing ΔN-hSARM1; approximately 48 hours from transfection; read-out: Evaluation on hSARM1 inhibitory
T1 sequence (Q6SZW1 28-724): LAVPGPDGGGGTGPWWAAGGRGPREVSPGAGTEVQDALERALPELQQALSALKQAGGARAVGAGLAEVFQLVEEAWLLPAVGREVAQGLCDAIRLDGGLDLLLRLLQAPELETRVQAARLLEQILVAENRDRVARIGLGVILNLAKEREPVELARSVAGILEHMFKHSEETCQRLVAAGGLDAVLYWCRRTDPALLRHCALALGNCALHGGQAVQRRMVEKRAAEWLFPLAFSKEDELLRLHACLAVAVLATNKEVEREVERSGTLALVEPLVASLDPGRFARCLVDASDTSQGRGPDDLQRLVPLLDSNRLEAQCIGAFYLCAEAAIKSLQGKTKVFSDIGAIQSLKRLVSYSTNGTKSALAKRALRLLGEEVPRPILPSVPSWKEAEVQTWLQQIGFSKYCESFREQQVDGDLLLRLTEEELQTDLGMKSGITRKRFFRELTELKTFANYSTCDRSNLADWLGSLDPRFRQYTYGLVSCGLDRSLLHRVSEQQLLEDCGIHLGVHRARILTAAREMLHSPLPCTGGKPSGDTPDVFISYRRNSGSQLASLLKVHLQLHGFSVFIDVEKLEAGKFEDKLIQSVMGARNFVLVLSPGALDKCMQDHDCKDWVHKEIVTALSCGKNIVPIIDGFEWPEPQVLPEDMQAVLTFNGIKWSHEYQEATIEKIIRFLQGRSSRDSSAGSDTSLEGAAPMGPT
In short: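 HEK293 cells in nicotinamide-free DMEM with 5 μM nicotinamide, transiently transfected with mitochondrial-targeting-deleted ΔN-hSARM1; PC6 base-exchange fluorescent probe (50 μM) plus compound (30 μM) added ~8 h post-transfection. Fluorescence (ex 405/em 525 nm) read ~48 h from transfection; inhibition % versus transfected DMSO control, untransfected background subtracted.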

[1] = tested on: primary cultured cells of mouse fetus-derived dorsal root ganglia (DRGs); experiment: Suppression of axonal degeneration after axotomy in DRG explant culture; assay type: cell-based; details: Mus musculus; minimum concentration at which axonal degeneration was suppressed (DI 0.3 or less); 24 hours after axotomy; read-out: Evaluation on protection against degeneration
In short: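 Embryonic ICR mouse DRG explants were cultured 7–8 days in nicotinamide-free neuronal medium with NGF, then axotomized by removing the cell bodies. Compound (100 pM–10 µM final, 0.1% DMSO) was added within 30 min, and neurites were imaged 24 h later. The result is the lowest concentration giving degeneration index ≤0.3.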

| Compound | inhibition at 30 µM (hSARM1) | minimal effective concentration [1] |
| --- | --- | --- |
| O=C(NCCCOCCOCCCNC(=O)c1cccnc1)c1cccnc1 [compound 35] | > 75% | ≤ 0.01 µM |
| CC(C)(C)C(=O)Nc1ccc(CNC(=O)c2cccnc2)cn1 [compound 76] | > 50% | ≤ 0.01 µM |
| O=C(NCc1ccc(NC(=O)c2ccccc2)nc1)c1cccnc1 [compound 105] | > 50% | ≤ 0.01 µM |

From patent publication EP4793271A1, “NEUROPROTECTIVE AGENT” (National Center of Neurology and Psychiatry, priority 2023, dated 2025)
